# Test results: patent publication US20070105877A1, “Pyrazolopyrimidines” (priority 2003, published 2007)
# Target: PDE-5 (UniProt O76074)
# Test: In vitro PDE inhibitory activity against PDE5 (batch method or scintillation proximity assay)
# Type: biochemical, human or rabbit
# Details: representative preferred compounds
# From the text: The compounds of the invention are inhibitors of cyclic guanylate monophosphate (cGMP)-specific phosphodiesterase type 5 (PDE-5 inhibitors).
# In particular, cGMP-specific PDE5 and cGMP-inhibited cAMP PDE3 can be obtained from human corpus cavernosum tissue, human platelets or rabbit platelets; cGMP-stimulated PDE2 was obtained from human corpus cavernosum; calcium/calmodulin (Ca/CAM)-dependent PDE1 from human cardiac ventricle; cAMP-specific PDE4 from human skeletal muscle; and photoreceptor PDE6 from bovine retina. Phosphodiesterases 7-11 can be generated from full length human recombinant clones transfected into SF9 cells.
# In summary, for the scintillation proximity assay the effect of PDE inhibitors was investigated by assaying a fixed amount of enzyme in the presence of varying inhibitor concentrations and low substrate, (cGMP or cAMP in a 3:1 ratio unlabelled to [^3H]-labeled at a concentration of ˜⅓ Km or less) such that IC50≅Kl. The final assay volume was made up to 100 μl with assay buffer [20 mM Tris-HCl pH 7.4, 5 mM MgCl2, 1 mg/ml bovine serum albumin]. Reactions were initiated with enzyme, incubated for 30-60 min at 30° C. to give <30% substrate turnover and terminated with 50 μl yttrium silicate SPA beads (containing 3 mM of the respective unlabelled cyclic nucleotide for PDEs 9 and 11).
row,SMILES,IC50
1,"CCOCCn1nc(C(=O)NCCC(=O)O)c2nc(N(C)C)nc(Nc3cc(C)ccn3)c21 [Example 23, 3-{[5-(dimethylamino)-1-(2-ethoxyethyl)-7-(4-methylpyridin-2-ylamino)-1H-pyrazolo[4,3-d]pyrimidine-3-carbonyl]amino}propionic acid]",40 pM
2,"CCOCCn1nc(C(=O)NC)c2nc(N(C)[C@H]3CCN(C)C3)nc(Nc3cc(C)ccn3)c21 [Example 73, 1-(2-Ethoxyethyl)-N-methyl-5-[N-methyl-N-((3S)-1-methylpyrrolidin-3-yl)amino]-7-(4-methylpyridin-2-ylamino)-1H-pyrazolo[4,3-d]pyrimidine-3-carboxamide]",420 pM
3,"CCOCCn1nc(C(=O)N[C@H](C)C(=O)O)c2nc(N(C)C)nc(Nc3cc(C)ccn3)c21 [Example 22, (2R)-2-{[5-(dimethylamino)-1-(2-ethoxyethyl)-7-(4-methylpyridin-2-ylamino)-1H-pyrazolo[4,3-d]pyrimidine-3-carbonyl]amino}propionic acid]",20 pM
4,CCOCCn1nc(C(=O)NCCNC)c2nc(N(C)C)nc(Nc3cc(C)ccn3)c21 [Example 16],400 pM
5,CCOCCn1nc(C(=O)NC)c2nc(N(C)CCO)nc(Nc3cc(C)ccn3)c21 [Example 61],120 pM
6,CCNC(=O)c1nn(CCOCC)c2c(Nc3cc(C)ccn3)nc(N3CCN[C@H](C)C3)nc12 [Example 32],730 pM
7,"CCOCCn1nc(C(=O)NC)c2nc(N3CCN[C@H](C)C3)nc(Nc3cc(C)ccn3)c21 [Example 30, 1-(2-ethoxyethyl)-N-methyl-5-((3R)-3-methylpiperazin-1-yl)-7-(4-methylpyridin-2-yl-amino)-1H-pyrazolo[4,3-d]pyrimidine-3-carboxamide]",1650 pM
8,"CCOCCn1nc(C(=O)NC)c2nc(NCCOC)nc(Nc3cc(C)ccn3)c21 [Example 62, 1-(2-ethoxyethyl)-5-((2-methoxyethyl)amino)-N-methyl-7-(4-methylpyridin-2-ylamino)-1H-pyrazolo[4,3-d]pyrimidine-3-carboxamide]",1880 pM
9,"CCOCCn1nc(C(=O)NCCO)c2nc(N(C)C)nc(Nc3cc(C)ccn3)c21 [Example 58, 5-(dimethylamino)-1-(2-ethoxyethyl)-N-(2-hydroxyethyl)-7-(4-methylpyridin-2-yl-amino)-1H-pyrazolo[4,3-d]pyrimidine-3-carboxamide]",130 pM
10,"CCNc1nc(Nc2cc(C)ccn2)c2c(n1)c(C(=O)NC)nn2CCOCC [Example 50, 1-(2-Ethoxyethyl)-5-(ethylamino)-N-methyl-7-(4-methylpyridin-2-ylamino)-1H-Pyrazolo[4,3-d]pyrimidine-3-carboxamide]",1310 pM
11,"CCOCCn1nc(C(=O)NCCOC)c2nc(N(C)C)nc(Nc3cc(C)ccn3)c21 [Example 19, 5-(dimethylamino)-1-(2-ethoxyethyl)-N-(2-methoxyethyl)-7-(4-methylpyridin-2-yl-amino)-1H-pyrazolo[4,3-d]pyrimidine-3-carboxamide]",90 pM
12,CCOCCn1nc(C(=O)NC2CCNCC2)c2nc(N(C)C)nc(Nc3cc(C)ccn3)c21 [Example 18],60 pM
13,"CCOCCn1nc(C(=O)NCCN(C)C)c2nc(N(C)C)nc(Nc3cc(C)ccn3)c21 [Example 17, 5-(dimethylamino)-N-(2-(dimethylamino)ethyl)-1-(2-ethoxyethyl)-7-(4-methylpyridin-2-ylamino)-1H-pyrazolo[4,3-d]pyrimidine-3-carboxamide]",240 pM
14,"CCOCCn1nc(C(=O)NC)c2nc(N(C)C)nc(Nc3cc(C)ccn3)c21 [Example 14, 5-(dimethylamino)-1-(2-ethoxyethyl)-N-methyl-7-(4-methylpyridin-2-ylamino)-1H-pyrazolo[4,3-d]pyrimidine-3-carboxamide]",260 pM
15,"CCOCCn1nc(C(=O)NCCOC)c2nc(NC)nc(Nc3cc(C)ccn3)c21 [Example 56, 1-(2-ethoxyethyl)-N-(2-methoxyethyl)-5-(methylamino)-7-(4-methylpyridin-2-ylamino)-1H-pyrazolo[4,3-d]pyrimidine-3-carboxamide]",1630 pM
16,"CCOCCn1nc(C(=O)NC)c2nc(N3CCN[C@H](C)C3)nc(NC3CCCCC3)c21 [Example 71, 7-(cyclohexylamino)-1-(2-ethoxyethyl)-N-methyl-5-((3R)-3-methylpiperazin-1-yl)-1H-pyrazolo[4,3-d]pyrimidine-3-carboxamide]",2950 pM
17,"CCNC(=O)c1nn(CCOCC)c2c(Nc3cc(C)ccn3)nc(NCC)nc12 [Example 8, 1-(2-ethoxyethyl)-N-ethyl-5-(ethylamino)-7-(4-methylpyridin-2-ylamino)-1H-pyrazolo[4,3-d]pyrimidine-3-carboxamide]",333 pM
18,"CCNc1nc(Nc2cc(C)ccn2)c2c(n1)c(C(=O)NCCOC)nn2CCOCC [Example 60, 1-(2-ethoxyethyl)-5-(ethylamino)-N-(2-methoxyethyl)-7-(4-methylpyridin-2-ylamino)-1H-pyrazolo[4,3-d]pyrimidine-3-carboxamide]",570 pM
